# Tests used:
# NMDA receptor = details: cited from earlier work
# hippocampal neurones [1] = experiment: Effect of five-minute application of 1 μM test article on intracellular calcium levels (calcium imaging, Fura-2-AM); assay type: cell-based, Lister-Hooded rat; details: for Concentration of intracellular Ca2+ Post-treatment: after five-minute application of 1 μM test article; for Fura-2 350/380 nm ratio, pre-treatment: baseline before five-minute application of 1 μM test article; for %ΔF/F / Concentration of intracellular Ca2+ Response (Post-Pre): five-minute application of 1 μM test article
# Protocol: (§1) Standard primary hippocampal cultures were prepared from Lister-Hooded rat pups (1-3 days old), euthanised by cervical dislocation, in accordance with Home Office and institute regulations. The brain was quickly removed, hippocampi dissected out and placed in ice-cold filtered HEPES buffered solution (HBS, composition in mM: NaCl 130; KCl 5.4; CaCl2 1.8; MgCl2 1.0; HEPES 10; glucose 25). Micro-dissection was performed to remove blood vessels and excess, non-hippocampal, tissue.
# (§2) The hippocampal tissue was thinly chopped and placed in 1 mg/ml type X and XIV protease solution (40 minutes). The tissue was then washed in HBS and triturated several times using graded fire-polished glass Pasteur pipettes. Following centrifugation, the supernatant was removed and the remaining tissue pellet re-suspended in tissue culture medium (90% Minimum Essential Medium with 10% foetal bovine serum and 2 mM L-glutamine). The tissue was stored at standard conditions: in a humidified incubator at 37° C. and in 5% CO2, and re-centrifuged.
# (§3) Excess medium was removed and the tissue pellet re-suspended in culture medium for plating. A drop of cell suspension was placed on the centre of a 35 mm culture dish, coated with poly-L-lysine and incubated at 37° C. for 1 hour. Following this, a further 2 ml of tissue culture medium was gently added to each dish and the culture kept in a humidified incubator (37° C.; 5% CO2).
# (§4) Cultures were allowed to mature for 2 days before replacement of MEM with Neurobasal Medium, supplemented with 2% B27, 2 mM L-glutamine, and 25 μM L-glutamate. Culture dishes were used for imaging at 5-10 days in vitro.
# (§5) For calcium imaging experiments, hippocampal cultures were washed with HBS at room temperature and loaded with the cell-permeable fluorescent calcium indicator Fura-2-AM (10 μM) for 1 hour in the dark.
# (§6) The sodium channel blocker tetrodotoxin (TTX) was added to all perfusion media, to avoid spontaneous cell firing and transmitter release, ensuring only post-synaptic effects were visualised.
# (§7) Cultures were perfused with HBS or low Mg^2+HEPES buffered solution for experiments involving NMDA (composition in mM: NaCl 130; KCl 5.4; CaCl2 1.8; MgCl2 0.1; HEPES 10; glucose 25), at a rate of 1-2 ml/min, using a gravity perfusion system.
# (§8) A suitable field of cells was identified under the microscope and a greyscale transmission image visualised and captured using Oracal software. A Xenon lamp, which gave a single wavelength of light, was used to expose the cells to 350 nm and 380 nm, specified by the monochromator.
# (§9) The ratio of these wavelengths, which is directly proportional to intracellular calcium levels in the cells, was plotted after background fluorescence subtraction.
# (§10) The data that were produced were pooled and means for each experiment determined.
# In order to test the regulation of calcium homeostasis in the presence of the test article, the effects were measured in response to a five-minute application of 1 μM sample.
# (§11) Fluorescent units were converted into %ΔF/F. F is defined as an average of five baseline values before drug application. The value for %ΔF/F is therefore the percentage change in the […] by the average baseline value before drug application.
# All experiments were performed a minimum of three times, each on neurones from a different culture. Only changes in fluorescence >0.1 ratio units were considered as a response. Data were exported to Excel and statistical analysis performed using Prism. Normality tests confirmed absence of normal distribution of data. Therefore, a Mann Whitney U test was utilised for paired comparisons and for multiple group comparisons a Kruskal-Wallis test with either a Dunn's or Mann Whitney post-test used.
# The effects of the essentially pure cannabinoids, the cannabinoid-containing plant extracts and the cannabinoid-ratioed comparators were assessed to investigate the responses of the neurones to these different forms of cannabinoid.
# hippocampal neurones [2] = experiment: Acute modulation of NMDA (10 μM) calcium response by five-minute application of 1 μM test article; assay type: cell-based, Lister-Hooded rat; details: for Pre-treatment %ΔF/F / Pre-treatment [Ca2+]: initial two-minute NMDA (10 μM) application, before test article; for Response (% change): reduction of NMDA (10 μM) calcium response by 1 μM test article, positive = reduction; for Post-treatment %ΔF/F / Post-treatment [Ca2+]: second two-minute NMDA (10 μM) application after five minutes of 1 μM test article
# Protocol: as §1, §2, §3, §4, §5, §6, §7, §8, §9, §10
# (§12) A stock of NMDA (10 mM) was made up in double-distilled water and the necessary concentrations made up in HBS. NMDA (with 100 μM glycine) was applied in every experiment to categorically distinguish between neuronal and glial cells in the image obtained.
# The acute modulatory effect of calcium homeostasis was assessed by comparing an initial two-minute application of NMDA (10 μM) with a subsequent two-minute application of NMDA (10 μM). The subsequent application of the NMDA followed a five minute application of 1 μM sample.
# as §11
# (§13) All experiments were performed a minimum of three times, each on neurones from a different culture. Only changes in fluorescence >0.1 ratio units were considered as a response. Data were exported to Excel and statistical analysis performed using Prism. Normality tests confirmed absence of normal distribution of data. […]
# hippocampal neurones [3] = experiment: Intracellular calcium ion concentration after overnight incubation with 1 μM test article; assay type: cell-based, Lister-Hooded rat; details: for Concentration of intracellular Ca2+ Response (Post-Pre): overnight incubation with 1 μM test article at 37° C., 5% CO2; for Change from control (%): overnight incubation with 1 μM test article, control = naïve culture dishes, minus = reduction
# Protocol: as §1, §2, §3, §4, §5, §6, §7, §8, §9, §10
# (§14) To assess the effects of the test articles under more realistic chronic treatment regimes, cells were incubated overnight with 1 μM sample and responses to increasing doses of NMDA assessed (1, 10 & 100 μM).
# as §11
# All experiments were performed a minimum of three times, each on neurones from a different culture. Only changes in fluorescence >0.1 ratio units were considered as a response. […]
# hippocampal neurones [4] = experiment: Response to increasing doses of NMDA after overnight incubation with 1 μM test article; assay type: cell-based, Lister-Hooded rat
# Protocol: as §1, §2, §3, §4, §5, §6, §7, §8, §9, §10, §12, §14, §11, §13
# hippocampal neurones [5] = experiment: Acute effect on NMDA calcium ion response following overnight incubation with test article; assay type: cell-based, Lister-Hooded rat; details: for Response (% change): overnight incubation plus acute 1 μM test article, NMDA 10 μM, positive = reduction, minus = increase; for Post-treatment %ΔF/F / Post-treatment [Ca2+] / Pre-treatment %ΔF/F / Pre-treatment [Ca2+]: overnight incubation with 1 μM test article; for Post-treatment %ΔF/F / Post-treatment [Ca2+]: NMDA 10 μM after 5 minute application of 1 μM same test article; for Pre-treatment %ΔF/F / Pre-treatment [Ca2+]: NMDA 10 μM for 2 minutes, before acute application
# Protocol: as §1, §2, §3, §4, §5, §6, §7, §8, §9, §10, §12
# In order to assess whether the acute modulatory effects are altered by overnight incubation, the cells were incubated overnight with the 1 μM sample and assessed by comparing an initial two-minute application of NMDA (10 μM) with a subsequent two-minute application of NMDA (10 μM). The subsequent application of the NMDA followed a five minute application of 1 μM test article.
# as §11
# All experiments were performed a minimum of three times, each on neurones from a different culture. Only changes in fluorescence >0.1 ratio units were considered as a response. Data were exported to Excel and statistical analysis performed using Prism. […]
# [6] = system: neuronal cultures exposed to glutamate; details: in vitro, isolated or synthetic cannabinoid; cited from earlier work
# [7] = isolated or synthetic CBD; cited from earlier work
Compound,Concentration of intracellular Ca2+ Post-treatment (hippocampal neurones [1]),"Fura-2 350/380 nm ratio, pre-treatment (hippocampal neurones [1])",%ΔF/F (hippocampal neurones [1]),Concentration of intracellular Ca2+ Response (Post-Pre) (hippocampal neurones [1]),Pre-treatment %ΔF/F (hippocampal neurones [2]),Pre-treatment [Ca2+] (hippocampal neurones [2]),Response (% change) (hippocampal neurones [2]),Post-treatment %ΔF/F (hippocampal neurones [2]),Post-treatment [Ca2+] (hippocampal neurones [2]),Concentration of intracellular Ca2+ Response (Post-Pre) (hippocampal neurones [3]),Change from control (%) (hippocampal neurones [3]),%ΔF/F (hippocampal neurones [4]; 1 μM NMDA),Concentration of intracellular Ca2+ Post-treatment (hippocampal neurones [4]; 1 μM NMDA),Concentration of intracellular Ca2+ Pre-treatment (hippocampal neurones [4]; 1 μM NMDA),Concentration of intracellular Ca2+ Response (Post-Pre) (hippocampal neurones [4]; 1 μM NMDA),%ΔF/F (hippocampal neurones [4]; 10 μM NMDA),Concentration of intracellular Ca2+ Post-treatment (hippocampal neurones [4]; 10 μM NMDA),Concentration of intracellular Ca2+ Pre-treatment (hippocampal neurones [4]; 10 μM NMDA),Concentration of intracellular Ca2+ Response (Post-Pre) (hippocampal neurones [4]; 10 μM NMDA),%ΔF/F (hippocampal neurones [4]; 100 μM NMDA),also measured
O=C(O)[C@@H]1C[C@H](CP(=O)(O)O)CCN1 (racemic) [Selfotel],–,–,–,–,–,–,–,–,–,–,–,–,–,–,–,–,–,–,–,–,Mortality rate versus placebo (NMDA receptor; stroke patients): trends towards a higher mortality rate
"CCCCCc1cc(O)c2c(c1)OC(C)(C)[C@@H]1CCC(C)=C[C@@H]21 [P-THC, tetrahydrocannabinol]",0.588,0.363,56.38%,0.225,93.69%,0.741,19.6%,63.81%,0.596,0.826,6.2%,62.24%,0.522,0.839,−0.317,57.50%,0.498,0.866,−0.368,200.35%,"Response (% change) (hippocampal neurones [2]; listed as essentially pure THC): lowest amount of reduction; Change from control (%) (hippocampal neurones [3]; listed as essentially pure THC): increase; Concentration of intracellular Ca2+ Response (Post-Pre) (hippocampal neurones [4]; 1 μM NMDA, listed as essentially pure THC): did not reduce the concentration of calcium ions as much as the others; Concentration of intracellular Ca2+ Post-treatment (hippocampal neurones [4]; 100 μM NMDA): 1.897; Concentration of intracellular Ca2+ Pre-treatment (hippocampal neurones [4]; 100 μM NMDA): 0.947; Concentration of intracellular Ca2+ Response (Post-Pre) (hippocampal neurones [4]; 100 μM NMDA): 0.950; Response (% change) (hippocampal neurones [5]): −28.5%; Post-treatment %ΔF/F (hippocampal neurones [5]): 38.93%; Post-treatment [Ca2+] (hippocampal neurones [5]): 0.487; Pre-treatment %ΔF/F (hippocampal neurones [5]): 46.53%; Pre-treatment [Ca2+] (hippocampal neurones [5]): 0.379; Prevention of glutamate toxicity [6]: prevented to some extent"
CN1CC[C@@]23CCCC[C@@H]2[C@@H]1Cc1ccc(O)cc13 [Dextrorphan],–,–,–,–,–,–,–,–,–,–,–,–,–,–,–,–,–,–,–,–,"Side effects (NMDA receptor; human subjects): hallucinations, agitation and hypotension"
"C=C(C)[C@@H]1CCC(C)=C[C@H]1c1c(O)cc(CCCCC)cc1O [P-CBD, cannabidiol]",1.172,0.805,45.45%,0.367,91.70%,0.722,58.2%,32.91%,0.302,0.893,13.2%,43.80%,0.410,0.933,−0.523,53.54%,0.489,0.913,−0.424,141.57%,Response (% change) (hippocampal neurones [2]; listed as essentially pure CBD): far greater reduction; Concentration of intracellular Ca2+ Post-treatment (hippocampal neurones [4]; 100 μM NMDA): 1.289; Concentration of intracellular Ca2+ Pre-treatment (hippocampal neurones [4]; 100 μM NMDA): 0.910; Concentration of intracellular Ca2+ Response (Post-Pre) (hippocampal neurones [4]; 100 μM NMDA): 0.379; Response (% change) (hippocampal neurones [5]): −68.6%; Response (% change) (hippocampal neurones [5]; listed as essentially pure CBD): increased the concentration to a large extent; Post-treatment %ΔF/F (hippocampal neurones [5]): 71.97%; Post-treatment [Ca2+] (hippocampal neurones [5]): 0.715; Pre-treatment %ΔF/F (hippocampal neurones [5]): 52.42%; Pre-treatment [Ca2+] (hippocampal neurones [5]): 0.424; Prevention of glutamate toxicity [6]: prevented to some extent; Difference between treated and placebo treated animals [7]: failed to find a difference
